Laboratory results taken from patent publication US5849259A, “3-,8-substituted deuteroporphyrin derivatives, pharmaceutical agents containing the latter and process for their production” (priority 1992, dated 1998).

Key:
[1] = test system: DMBA-induced breast cancer; experiment: Signal intensity change in tissues of rats with DMBA-induced breast cancer, Bruker Biospec 2.35 Tesla, MSVE; format: in vivo; parameters: key to enhancement, Tumor / enhancement, Liver / enhancement, Kidneys / enhancement, Muscle: signal intensity relative to an internal standard
Procedure: b) On a Bruker Biospec nuclear spin tomograph (2.35 Tesla), the signal intensity change in various tissues of rats with a DMBA-induced breast cancer was studied after i.v. administration of 0.05 mmol/kg or 0.1 mmol of the compound of example 1c (20 mmol/l, pH 7.2; 37° C. in bidistilled water). The measurements took place with a multi slice variable echo sequence (MSVE). Imaging parameters: TR: 400 ms, TE: 25 ms, layer thickness: 4 mm, number of averages: 4/slice, matrix 256^2.
After a preliminary image, 0.05 mmol/kg or 0.1 mmol/kg of the substance was administered and the signal intensity change (relative to an internal standard) was studied.
The ^1 H-NMR images of the DMBA-induced breast cancer after administration of 0.1 mmol/kg i.v. after 5 minutes or 3 or 24 hours p.i. are reproduced in FIG. 1.

[2] = test system: Novikoff-hepatoma; experiment: Signal intensity change in tissues of tumor-bearing (Novikoff-hepatoma, i.m.) nude rats, Bruker Biospec 2.35 Tesla, MSSE; format: in vivo, nude rats (LEW/Mol rnu/rnu); conditions: 0.1 mmol/kg i.v.
Source text: The measurements were made with a multi slice single echo sequence (MSSE). […] […] The relative intensities relative to the respective initial intensity (=1.00 set) are indicated.

Substance: N,N'-Bis[9-carboxylato-2,5,8-tris(carboxylatomethyl)-2,5,8-triazanonyl-carbamoyl]-mesoporphyrin-IX-13,17-diamide, digadolinium complex, disodium salt [Example 1c]
- signal intensity change, kidneys ([1]; 0.05 mmol/kg i.v.): stronger signal intensity change
- signal intensity change, muscle ([1]; 0.05 or 0.1 mmol/kg i.v., up to 24 hours p.i.): only a slight change
- enhancement, Kidneys ([1]; 1 min, 0.1 mmol/kg i.v.): 1.16
- enhancement, Liver ([1]; 1 min, 0.1 mmol/kg i.v.): 1.55
- enhancement, Muscle ([1]; 1 min, 0.1 mmol/kg i.v.): 1.46
- enhancement, Tumor ([1]; 1 min, 0.1 mmol/kg i.v.): 2.48
- enhancement, Kidneys ([1]; 5 min, 0.05 mmol/kg i.v.): 2.57
- enhancement, Liver ([1]; 5 min, 0.05 mmol/kg i.v.): 1.48
- enhancement, Muscle ([1]; 5 min, 0.05 mmol/kg i.v.): 1.34
- enhancement, Tumor ([1]; 5 min, 0.05 mmol/kg i.v.): 1.88
- signal intensity change, liver tissue and tumors ([1]; 5 minutes p.i., 0.05 or 0.1 mmol/kg i.v.): marked signal intensity increase
- enhancement, Kidneys ([1]; 15 min, 0.05 mmol/kg i.v.): 2.81
- enhancement, Liver ([1]; 15 min, 0.05 mmol/kg i.v.): 1.29
- enhancement, Muscle ([1]; 15 min, 0.05 mmol/kg i.v.): 1.26
- enhancement, Tumor ([1]; 15 min, 0.05 mmol/kg i.v.): 1.97
- enhancement, Kidneys ([1]; 15 min, 0.1 mmol/kg i.v.): 2.36
- enhancement, Liver ([1]; 15 min, 0.1 mmol/kg i.v.): 1.61
- enhancement, Muscle ([1]; 15 min, 0.1 mmol/kg i.v.): 1.30
- enhancement, Tumor ([1]; 15 min, 0.1 mmol/kg i.v.): 2.40
- enhancement, Kidneys ([1]; 26 min, 0.1 mmol/kg i.v.): 2.33
- enhancement, Liver ([1]; 26 min, 0.1 mmol/kg i.v.): 1.45
- enhancement, Muscle ([1]; 26 min, 0.1 mmol/kg i.v.): 1.37
- enhancement, Tumor ([1]; 26 min, 0.1 mmol/kg i.v.): 2.41
- enhancement, Kidneys ([1]; 30 min, 0.05 mmol/kg i.v.): 2.94
- enhancement, Liver ([1]; 30 min, 0.05 mmol/kg i.v.): 1.42
- enhancement, Muscle ([1]; 30 min, 0.05 mmol/kg i.v.): 1.22
- enhancement, Tumor ([1]; 30 min, 0.05 mmol/kg i.v.): 1.71
- enhancement, Kidneys ([1]; 40 min, 0.1 mmol/kg i.v.): 2.38
- enhancement, Liver ([1]; 40 min, 0.1 mmol/kg i.v.): 1.51
- enhancement, Muscle ([1]; 40 min, 0.1 mmol/kg i.v.): 1.23
- enhancement, Tumor ([1]; 40 min, 0.1 mmol/kg i.v.): 2.34
- enhancement, Kidneys ([1]; 45 min, 0.05 mmol/kg i.v.): 2.84
- enhancement, Liver ([1]; 45 min, 0.05 mmol/kg i.v.): 1.49
- enhancement, Muscle ([1]; 45 min, 0.05 mmol/kg i.v.): 1.12
- enhancement, Tumor ([1]; 45 min, 0.05 mmol/kg i.v.): 1.71
- enhancement, Kidneys ([1]; 60 min, 0.05 mmol/kg i.v.): 2.53
- enhancement, Liver ([1]; 60 min, 0.05 mmol/kg i.v.): 1.52
- enhancement, Muscle ([1]; 60 min, 0.05 mmol/kg i.v.): 1.10
- enhancement, Tumor ([1]; 60 min, 0.05 mmol/kg i.v.): 1.50
- enhancement, Kidneys ([1]; 60 min, 0.1 mmol/kg i.v.): 1.86
- enhancement, Liver ([1]; 60 min, 0.1 mmol/kg i.v.): 1.36
- enhancement, Muscle ([1]; 60 min, 0.1 mmol/kg i.v.): 1.23
- enhancement, Tumor ([1]; 60 min, 0.1 mmol/kg i.v.): 2.34
- enhancement, Kidneys ([1]; 71 min, 0.1 mmol/kg i.v.): 1.66
- enhancement, Liver ([1]; 71 min, 0.1 mmol/kg i.v.): 1.62
- enhancement, Muscle ([1]; 71 min, 0.1 mmol/kg i.v.): 1.17
- enhancement, Tumor ([1]; 71 min, 0.1 mmol/kg i.v.): 2.36
- enhancement, Kidneys ([1]; 75 min, 0.05 mmol/kg i.v.): 2.47
- enhancement, Liver ([1]; 75 min, 0.05 mmol/kg i.v.): 1.50
- enhancement, Muscle ([1]; 75 min, 0.05 mmol/kg i.v.): 1.04
- enhancement, Tumor ([1]; 75 min, 0.05 mmol/kg i.v.): 1.71
- enhancement, Kidneys ([1]; 85 min, 0.1 mmol/kg i.v.): 1.64
- enhancement, Liver ([1]; 85 min, 0.1 mmol/kg i.v.): 1.48
- enhancement, Muscle ([1]; 85 min, 0.1 mmol/kg i.v.): 1.32
- enhancement, Tumor ([1]; 85 min, 0.1 mmol/kg i.v.): 2.39
- enhancement, Kidneys ([1]; 90 min, 0.05 mmol/kg i.v.): 2.15
- enhancement, Liver ([1]; 90 min, 0.05 mmol/kg i.v.): 1.53
- enhancement, Muscle ([1]; 90 min, 0.05 mmol/kg i.v.): 1.11
- enhancement, Tumor ([1]; 90 min, 0.05 mmol/kg i.v.): 1.62
- enhancement, Kidneys ([1]; 105 min, 0.05 mmol/kg i.v.): 2.63
- enhancement, Liver ([1]; 105 min, 0.05 mmol/kg i.v.): 1.63
- enhancement, Muscle ([1]; 105 min, 0.05 mmol/kg i.v.): 1.07
- enhancement, Tumor ([1]; 105 min, 0.05 mmol/kg i.v.): 1.75
- enhancement, Kidneys ([1]; 115 min, 0.1 mmol/kg i.v.): 2.43
- enhancement, Liver ([1]; 115 min, 0.1 mmol/kg i.v.): 1.62
- enhancement, Muscle ([1]; 115 min, 0.1 mmol/kg i.v.): 1.23
- enhancement, Tumor ([1]; 115 min, 0.1 mmol/kg i.v.): 2.38
- enhancement, Kidneys ([1]; 150 min, 0.1 mmol/kg i.v.): 2.27
- enhancement, Liver ([1]; 150 min, 0.1 mmol/kg i.v.): 1.48
- enhancement, Muscle ([1]; 150 min, 0.1 mmol/kg i.v.): 1.17
- enhancement, Tumor ([1]; 150 min, 0.1 mmol/kg i.v.): 2.31
- enhancement, Kidneys ([1]; 160 min, 0.05 mmol/kg i.v.): 2.38
- enhancement, Liver ([1]; 160 min, 0.05 mmol/kg i.v.): 1.47
- enhancement, Muscle ([1]; 160 min, 0.05 mmol/kg i.v.): 1.07
- enhancement, Tumor ([1]; 160 min, 0.05 mmol/kg i.v.): 1.69
- enhancement, Kidneys ([1]; 180 min, 0.05 mmol/kg i.v.): 2.54
- enhancement, Liver ([1]; 180 min, 0.05 mmol/kg i.v.): 1.57
- enhancement, Muscle ([1]; 180 min, 0.05 mmol/kg i.v.): 1.02
- enhancement, Tumor ([1]; 180 min, 0.05 mmol/kg i.v.): 1.67
- enhancement, Kidneys ([1]; 180 min, 0.1 mmol/kg i.v.): 2.18
- enhancement, Liver ([1]; 180 min, 0.1 mmol/kg i.v.): 1.59
- enhancement, Muscle ([1]; 180 min, 0.1 mmol/kg i.v.): 1.22
- enhancement, Tumor ([1]; 180 min, 0.1 mmol/kg i.v.): 2.38
- enhancement, Kidneys ([1]; 24 hours, 0.05 mmol/kg i.v.): 1.17
- enhancement, Liver ([1]; 24 hours, 0.05 mmol/kg i.v.): 0.93
- enhancement, Muscle ([1]; 24 hours, 0.05 mmol/kg i.v.): 1.07
- enhancement, Tumor ([1]; 24 hours, 0.05 mmol/kg i.v.): 1.31
- enhancement, Kidneys ([1]; 24 hours, 0.1 mmol/kg i.v.): 0.94
- enhancement, Liver ([1]; 24 hours, 0.1 mmol/kg i.v.): 1.33
- enhancement, Muscle ([1]; 24 hours, 0.1 mmol/kg i.v.): 1.15
- enhancement, Tumor ([1]; 24 hours, 0.1 mmol/kg i.v.): 2.02
- elimination route [2]: eliminated mainly renally
- average enhancement, Kidneys ([2]; 1 min): 1.67 ± 0.35
- average enhancement, Liver ([2]; 1 min): 1.43 ± 0.24
- average enhancement, Muscle ([2]; 1 min): 1.60 ± 0.01
- average enhancement, Tumor ([2]; 1 min): 1.63 ± 0.24
- average enhancement, Kidneys ([2]; 15 min): 2.13 ± 0.28
- average enhancement, Liver ([2]; 15 min): 1.34 ± 0.22
- average enhancement, Muscle ([2]; 15 min): 1.54 ± 0.06
- average enhancement, Tumor ([2]; 15 min): 1.71 ± 0.19
- average enhancement, Kidneys ([2]; 30 min): 2.14 ± 0.38
- average enhancement, Liver ([2]; 30 min): 1.31 ± 0.21
- average enhancement, Muscle ([2]; 30 min): 1.47 ± 0.08
- average enhancement, Tumor ([2]; 30 min): 1.72 ± 0.23
- average enhancement, Kidneys ([2]; 45 min): 2.10 ± 0.30
- average enhancement, Liver ([2]; 45 min): 1.17 ± 0.16
- average enhancement, Muscle ([2]; 45 min): 1.41 ± 0.10
- average enhancement, Tumor ([2]; 45 min): 1.79 ± 0.21
- average enhancement, Kidneys ([2]; 60 min): 2.12 ± 0.19
- average enhancement, Liver ([2]; 60 min): 1.31 ± 0.09
- average enhancement, Muscle ([2]; 60 min): 1.33 ± 0.05
- average enhancement, Tumor ([2]; 60 min): 1.78 ± 0.24
- average enhancement, Kidneys ([2]; 75 min): 1.93 ± 0.19
- average enhancement, Liver ([2]; 75 min): 1.37 ± 0.05
- average enhancement, Muscle ([2]; 75 min): 1.37 ± 0.01
- average enhancement, Tumor ([2]; 75 min): 1.64 ± 0.17
- average enhancement, Kidneys ([2]; 90 min): 1.96 ± 0.08
- average enhancement, Liver ([2]; 90 min): 1.22 ± 0.24
- average enhancement, Muscle ([2]; 90 min): 1.24 ± 0.03
- average enhancement, Tumor ([2]; 90 min): 1.75 ± 0.27
- average enhancement, Kidneys ([2]; 120 min): 1.92 ± 0.33
- average enhancement, Liver ([2]; 120 min): 1.23 ± 0.07
- average enhancement, Muscle ([2]; 120 min): 1.28 ± 0.08
- average enhancement, Tumor ([2]; 120 min): 1.77 ± 0.23
- average enhancement, Kidneys ([2]; 150 min): 1.86 ± 0.18
- average enhancement, Liver ([2]; 150 min): 1.16 ± 0.22
- average enhancement, Muscle ([2]; 150 min): 1.20 ± 0.06
- average enhancement, Tumor ([2]; 150 min): 1.73 ± 0.23
- average enhancement, Kidneys ([2]; 180 min): 1.84 ± 0.24
- average enhancement, Liver ([2]; 180 min): 1.07 ± 0.20
- average enhancement, Muscle ([2]; 180 min): 1.15 ± 0.04
- average enhancement, Tumor ([2]; 180 min): 1.85 ± 0.09
- average enhancement, Kidneys ([2]; 190 min): 1.73 ± 0.00
- average enhancement, Liver ([2]; 190 min): 1.27 ± 0.00
- average enhancement, Muscle ([2]; 190 min): 1.21 ± 0.00
- average enhancement, Tumor ([2]; 190 min): 1.45 ± 0.00
- signal intensity, liver and muscles ([2]; after 2-3 hours): the initial intensity almost returned
- increase in the intensity, studied tissues ([2]; directly after administration): ~60%
- signal intensity, tumor ([2]; during the observation time): remained at an almost unchanged high level
- signal intensity, kidneys relative to tumors ([2]; up to 150 minutes): high above that which could be determined in the tumors
